Test results published in ChEMBL document CHEMBL4219072, “Enhancing the anti-biofilm activity of 5-aryl-2-aminoimidazoles through nature inspired dimerisation” (Bioorg Med Chem, 2018).

Legend:
Escherichia coli [1] = assay: Antibiofilm activity against Escherichia coli TG1 after 24 hrs by crystal violet staining based assay; format: functional, organism-based; details: TG1, 24 h
Staphylococcus aureus [2] = assay: Antibiofilm activity against Staphylococcus aureus SH1000 after 48 hrs by crystal violet staining based assay; format: functional, organism-based; details: SH1000, 48 h
Salmonella typhimurium [3] = assay: Antibiofilm activity against Salmonella typhimurium ATCC 14028 after 24 hrs by crystal violet staining based assay; format: functional, organism-based, Salmonella enterica subsp. enterica serovar Typhimurium; details: Salmonella enterica, ATCC 14028, 24 h
Pseudomonas aeruginosa = assay: Antibiofilm activity against Pseudomonas aeruginosa PA14 after 24 hrs by crystal violet staining based assay; format: functional, organism-based; details: PA14, 24 h
Escherichia coli [4] = assay: Inhibition of planktonic growth of Escherichia coli TG1 after 24 hrs; format: organism-based; details: TG1, 24 h
Salmonella typhimurium [5] = assay: Inhibition of planktonic growth of Salmonella typhimurium ATCC 14028 after 24 hrs; format: organism-based, Salmonella enterica subsp. enterica serovar Typhimurium; details: Salmonella enterica, ATCC 14028, 24 h
Staphylococcus aureus [6] = assay: Inhibition of planktonic growth of Staphylococcus aureus SH1000 after 48 hrs; format: organism-based; details: SH1000, 48 h

| SMILES | IC50 (Escherichia coli [1]) [µM] | IC50 (Staphylococcus aureus [2]) [µM] | IC50 (Salmonella typhimurium [3]) [µM] | IC50 (Pseudomonas aeruginosa) [µM] | IC50 (Escherichia coli [4]) [µM] | IC50 (Salmonella typhimurium [5]) [µM] | IC50 (Staphylococcus aureus [6]) [µM] |
| --- | --- | --- | --- | --- | --- | --- | --- |
| Nc1ncc(-c2ccccc2)[nH]1 | 146 | > 800 |  |  |  |  |  |
| Nc1ncc(-c2ccc(F)cc2)[nH]1 | 75.5 | > 800 |  |  |  |  |  |
| Nc1ncc(-c2ccc(Cl)cc2)[nH]1 | 18 | 121 |  |  |  |  |  |
| Nc1ncc(-c2ccc(Br)cc2)[nH]1 | 8.8 | 152 |  |  |  |  |  |
| Fc1ccc(-c2cnc(NCCCCNc3ncc(-c4ccc(F)cc4)[nH]3)[nH]2)cc1 | 6.5 | 40.6 | 5.9 | 5.6 | 4.55 | 46 | 144 |
| c1ccc(-c2cnc(NCCCCNc3ncc(-c4ccccc4)[nH]3)[nH]2)cc1 | 12.3 | 28.6 | 7.7 | 5.9 | 6.81 | 49.4 | 301 |
| Nc1ncc(-c2ccc(Cl)cc2)n1CCCCCCCn1c(-c2ccc(Cl)cc2)cnc1N | 6.1 | 10.6 | 3.3 | 4.9 | > 400 | 200 | 16.2 |
| Fc1ccc(-c2cnc(NCCCCCCCCNc3ncc(-c4ccc(F)cc4)[nH]3)[nH]2)cc1 | 31.5 | 372 | 11.6 | 15.2 | 47.6 | > 800 | 250 |
| Nc1ncc(-c2ccc(Br)cc2)n1CCCn1c(-c2ccc(Br)cc2)cnc1N | 6.3 | 15 | 2.7 | 2.5 | 9.93 | 11.5 | 22 |
| c1ccc(-c2cnc(NCCCCCCCCNc3ncc(-c4ccccc4)[nH]3)[nH]2)cc1 | 19.3 | 300 | 11.2 | 21.3 | 48.7 | > 800 | 230 |
| Nc1ncc(-c2ccc(Cl)cc2)n1CCCn1c(-c2ccc(Cl)cc2)cnc1N | 4.5 | 26.4 | 4.1 | 3.1 | 7.56 | 11 | 26.4 |
| c1ccc(-c2cnc(NCCCCCCNc3ncc(-c4ccccc4)[nH]3)[nH]2)cc1 | 2 | 99.4 | 14.2 | 23.7 | 2.58 | 41.3 | 113 |
| c1ccc(-c2cnc(NCCCNc3ncc(-c4ccccc4)[nH]3)[nH]2)cc1 | 4.1 | 300 | 5.7 | 2.8 | 2.82 | 75.9 | 292 |
| Nc1ncc(-c2ccc(F)cc2)n1CCCCCCn1c(-c2ccc(F)cc2)cnc1N | 1.8 | 48 | 3.2 | 11.6 | > 800 | 23.8 | 34.4 |
| Nc1ncc(-c2ccc(Cl)cc2)n1CCCCCCn1c(-c2ccc(Cl)cc2)cnc1N | 4 | 8.6 | 4.8 | 3.2 | > 400 | 300 | 7.4 |
| Fc1ccc(-c2cnc(NCCCCCCCNc3ncc(-c4ccc(F)cc4)[nH]3)[nH]2)cc1 | 10 | 107 | 10.4 | 7.5 | 7.48 | 86.1 | 121 |
| Nc1ncc(-c2ccc(F)cc2)n1CCCCCCCCn1c(-c2ccc(F)cc2)cnc1N | 7 | 22.4 | 1.5 | 12.2 | 7.13 | 100 | 11.7 |
| Nc1ncc(-c2ccc(Br)cc2)n1CCCCn1c(-c2ccc(Br)cc2)cnc1N | 6.4 | 7.2 | 3.9 | 3.1 | 6.09 | 200 | 9.17 |
| c1ccc(-c2cnc(NCCCCCCCNc3ncc(-c4ccccc4)[nH]3)[nH]2)cc1 | 11.8 | 400 | 12.6 | 4.6 | 12.9 | > 800 | 689 |
| Nc1ncc(-c2ccc(Cl)cc2)n1CCCCn1c(-c2ccc(Cl)cc2)cnc1N | 12.3 | 180 | 5.3 | 3.1 | 16.6 | 64 | 130 |
| Fc1ccc(-c2cnc(NCCCCCCNc3ncc(-c4ccc(F)cc4)[nH]3)[nH]2)cc1 | 5.4 | 8.9 | 10.3 | 10.1 | 5.52 | 23.8 | 28.7 |

| SMILES | IC50 (Escherichia coli [1]) [µM] | IC50 (Staphylococcus aureus [2]) [µM] | IC50 (Salmonella typhimurium [3]) [µM] | IC50 (Pseudomonas aeruginosa) [µM] | IC50 (Escherichia coli [4]) [µM] | IC50 (Salmonella typhimurium [5]) [µM] | IC50 (Staphylococcus aureus [6]) [µM] |
| --- | --- | --- | --- | --- | --- | --- | --- |
| c1ccc(-c2cnc(NCCCCCNc3ncc(-c4ccccc4)[nH]3)[nH]2)cc1 | 5.2 | 180 | 4.6 | 1.2 | 19.9 | 59.6 | 108 |
| Nc1ncc(-c2ccc(F)cc2)n1CCCCn1c(-c2ccc(F)cc2)cnc1N | 25.4 | 24.4 | 11.4 | 11.1 | 77.3 | 50 | 27 |
| Nc1ncc(-c2ccc(F)cc2)n1CCCCCn1c(-c2ccc(F)cc2)cnc1N | 7.5 | 60.7 | 4.8 | 12 | 3.74 | 85.4 | 59.7 |
| Nc1ncc(-c2ccccc2)n1CCCCn1c(-c2ccccc2)cnc1N | 27.5 | 275 | 13.5 | 23.6 | 50.4 | 59.3 | 255 |
| Nc1ncc(-c2ccc(Br)cc2)n1CCCCCCCn1c(-c2ccc(Br)cc2)cnc1N | 2.3 | 5.5 | 1.7 | 1.1 | > 400 | > 400 | 8.02 |
| Nc1ncc(-c2ccc(F)cc2)n1CCCCCCCn1c(-c2ccc(F)cc2)cnc1N | 7.2 | 23.7 | 2.9 | 7.1 | > 100 | 50 | 34 |
| Nc1ncc(-c2ccccc2)n1CCCCCCn1c(-c2ccccc2)cnc1N | 2.9 | 51.3 | 3 | 4 | > 800 | 100 | 53.8 |
| Nc1ncc(-c2ccc(Br)cc2)n1CCCCCn1c(-c2ccc(Br)cc2)cnc1N | 6.3 | 7.4 | 4 | 6.1 | 6.7 | 35.9 | 8.76 |
| Nc1ncc(-c2ccc(Cl)cc2)n1CCCCCn1c(-c2ccc(Cl)cc2)cnc1N | 12 | 13.5 | 5.1 | 6.6 | 13.4 | 19.1 | 24.3 |
| Fc1ccc(-c2cnc(NCCCCCNc3ncc(-c4ccc(F)cc4)[nH]3)[nH]2)cc1 | 7 | 150 | 7.6 | 1.7 | 16.4 | 85.4 | 105 |
| Nc1ncc(-c2ccccc2)n1CCCCCCCCn1c(-c2ccccc2)cnc1N | 2.9 | 22.2 | 16.1 | 8.7 | 6.13 | > 400 | 15.3 |
| Nc1ncc(-c2ccccc2)n1CCCn1c(-c2ccccc2)cnc1N | 26.6 | 0.4 | 15.3 | 25.2 | 62.4 | 147 | 572 |
| Nc1ncc(-c2ccc(F)cc2)n1CCCn1c(-c2ccc(F)cc2)cnc1N | 7.5 | 171 | 7.4 | 11.6 | 10.7 | 103 | 124 |
| Nc1ncc(-c2ccc(Cl)cc2)n1CCCCCCCCn1c(-c2ccc(Cl)cc2)cnc1N | 1.1 | 6.1 | 2 | 1.3 | 2.8 | 47.8 | 3.9 |
| Clc1ccc(-c2cnc(NCCCCCCCNc3ncc(-c4ccc(Cl)cc4)[nH]3)[nH]2)cc1 | 35 | 150 | 23 | 120 | 29.8 | > 800 | 141 |
| Nc1ncc(-c2ccccc2)n1CCCCCn1c(-c2ccccc2)cnc1N | 10.5 | 96.1 | 20.2 | 33.1 | > 800 | 89.8 | 85.7 |
| Nc1ncc(-c2ccc(Br)cc2)n1CCCCCCCCn1c(-c2ccc(Br)cc2)cnc1N | 0.8 | 2.8 | 7.7 | 4.5 | 2.99 | > 400 | 2 |
| Fc1ccc(-c2cnc(NCCCNc3ncc(-c4ccc(F)cc4)[nH]3)[nH]2)cc1 | 4.8 | 50 | 6.3 | 5.7 | 16.2 | 59.2 | 60.1 |
| Nc1ncc(-c2ccccc2)n1CCCCCCCn1c(-c2ccccc2)cnc1N | 8 | 11.7 | 3.7 | 3.7 | > 800 | > 400 | 32.7 |
| Nc1ncc(-c2ccc(Br)cc2)n1CCCCCCn1c(-c2ccc(Br)cc2)cnc1N | 8.2 | 11.2 | 8.4 | 5.8 | > 400 | > 400 | 11.1 |
| Clc1ccc(-c2cnc(NCCCCCCCCNc3ncc(-c4ccc(Cl)cc4)[nH]3)[nH]2)cc1 | 42.7 | 300 | 8.3 | 31.6 | 44 | 47.8 | 121 |
